Patent US11524968B2, “Heterocyclic compound as a protein kinase inhibitor” (HK inno.N Corporation, priority 2017, dated 2022)

Target: JAK1 (Homo sapiens (Human), UniProt P23458)
Assay: Analysis of JAK1 activity inhibition ability (ADP-Glo Kinase Assay)
Assay type: biochemical
Details: JAK1 enzyme, ADP-Glo luminescence, ATP 250 uM, IRS-itide substrate, 30° C. 40 minutes; read-out: IC50
In short: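 ADP-Glo luminescence read-out of ADP production, with IC50 taken as the concentration halving JAK1 activity relative to control. Enzyme was incubated 40 min at 30 °C with compound, IRS-itide (40 ng/mL) and ATP (250 uM), concentrations as prepared in pH 7.5 Tris-HCl/MgCl2/BSA/DTT buffer.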

Chain of JAK1 (P23458 whole entry): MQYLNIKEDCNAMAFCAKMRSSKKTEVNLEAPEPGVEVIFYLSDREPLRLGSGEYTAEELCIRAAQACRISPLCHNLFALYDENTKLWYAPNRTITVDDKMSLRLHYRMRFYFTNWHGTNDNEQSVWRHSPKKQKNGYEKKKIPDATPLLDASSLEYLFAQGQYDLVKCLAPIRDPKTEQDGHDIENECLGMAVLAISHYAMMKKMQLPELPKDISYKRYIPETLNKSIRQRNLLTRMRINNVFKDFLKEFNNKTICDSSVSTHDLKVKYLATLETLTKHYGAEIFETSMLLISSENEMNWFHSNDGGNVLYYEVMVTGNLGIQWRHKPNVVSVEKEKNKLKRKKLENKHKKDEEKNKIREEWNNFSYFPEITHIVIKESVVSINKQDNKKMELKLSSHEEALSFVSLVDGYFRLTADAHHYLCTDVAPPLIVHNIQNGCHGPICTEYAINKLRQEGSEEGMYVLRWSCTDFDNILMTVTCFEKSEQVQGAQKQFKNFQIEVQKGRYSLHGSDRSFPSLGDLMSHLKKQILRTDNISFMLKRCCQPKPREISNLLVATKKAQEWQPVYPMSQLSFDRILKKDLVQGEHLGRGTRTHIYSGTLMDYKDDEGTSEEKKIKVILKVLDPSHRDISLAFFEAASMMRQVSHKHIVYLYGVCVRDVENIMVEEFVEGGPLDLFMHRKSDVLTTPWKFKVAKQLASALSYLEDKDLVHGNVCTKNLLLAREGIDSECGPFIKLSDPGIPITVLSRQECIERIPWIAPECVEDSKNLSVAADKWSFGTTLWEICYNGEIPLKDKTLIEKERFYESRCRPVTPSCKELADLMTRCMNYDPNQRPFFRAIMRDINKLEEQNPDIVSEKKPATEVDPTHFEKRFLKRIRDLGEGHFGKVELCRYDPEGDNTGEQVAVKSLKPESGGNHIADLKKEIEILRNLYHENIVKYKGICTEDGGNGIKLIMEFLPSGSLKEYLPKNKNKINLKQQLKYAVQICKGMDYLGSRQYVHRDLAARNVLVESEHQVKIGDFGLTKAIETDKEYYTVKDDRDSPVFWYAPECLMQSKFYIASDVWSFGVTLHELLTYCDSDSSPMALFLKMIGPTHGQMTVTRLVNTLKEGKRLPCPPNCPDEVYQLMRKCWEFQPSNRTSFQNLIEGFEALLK

Row | SMILES | IC50
1 | CCS(=O)(=O)N1CC=C(c2cc(NC(=O)C3CC3)nc3[nH]ccc23)C(C)(C)C1 [Example 179, N-(4-(1-(ethylsulfonyl)-3,3-dimethyl-1,2,3,6-tetrahydropyridin-4-yl)-1H-pyrrolo[2,3-b]pyridin-6-yl)cyclopropanecarboxamide] | > 200 nM
2 | CC1(C)CC(c2cc(NC(=O)C3CC3)nc3[nH]ccc23)=CCN1C(=O)c1ccnc(Cl)c1 [Example 386, N-(4-(1-(2-chloroisonicotinoyl)-2,2-dimethyl-1,2,3,6-tetrahydropyridin-4-yl)-1H-pyrrolo[2,3-b]pyridin-6-yl)cyclopropanecarboxamide] | 20 to 200 nM
3 | N#CCCC(=O)N1CCN(c2cc(NC(=O)C3CC3)nc3[nH]ccc23)CC1 [Example 684, N-(4-(4-(3-cyanopropanoyl)piperazin-1-yl)-1H-pyrrolo[2,3-b]pyridin-6-yl)cyclopropanecarboxamide] | > 200 nM
4 | CCCCS(=O)(=O)Nc1ccc(-c2cc(NC(=O)C3CC3)nc3[nH]ccc23)cc1CC [Example 127, N-(4-(4-(butylsulfonamido)-3-ethylphenyl)-1H-pyrrolo[2,3-b]pyridin-6-yl)cyclopropanecarboxamide] | 20 to 200 nM
5 | O=C(Nc1cc(-c2cnn(C3CN(S(=O)(=O)c4ccc(F)c(F)c4)C3)c2)c2cc[nH]c2n1)C1CC1 [Example 605, N-(4-(1-(1-((3,4-difluorophenyl)sulfonyl)azetidin-3-yl)-1H-pyrazol-4-yl)-1H-pyrrolo[2,3-b]pyridin-6-yl)cyclopropanecarboxamide] | 20 to 200 nM
6 | CCc1cc(-c2cc(NC(=O)C3CC3)nc3[nH]ccc23)ccc1NS(=O)(=O)C1CCC1 [Example 128, N-(4-(4-(cyclobutanesulfonamido)-3-ethylphenyl)-1H-pyrrolo[2,3-b]pyridin-6-yl)cyclopropanecarboxamide] | < 20 nM
7 | O=C(Nc1cc(-c2ccc(NS(=O)(=O)c3cccc(Cl)c3)cc2)c2cc[nH]c2n1)C1CC1 [Example 26, N-(4-(4-((3-chlorophenyl)sulfonamido)phenyl)-1H-pyrrolo[2,3-b]pyridin-6-yl)cyclopropanecarboxamide] | 20 to 200 nM
8 | O=C(Nc1nc(-c2ccc(NCc3cccc(F)c3)cc2)c2cc[nH]c2n1)C1CC1 [Example 474, N-(4-(4-((3-fluorobenzyl)amino)phenyl)-7H-pyrrolo[2,3-d]pyrimidin-2-yl)cyclopropanecarboxamide] | < 20 nM
9 | N#CCC(=O)N1CC=C(c2cc(NC(=O)C3CC3)nc3[nH]ccc23)CCC1 [Example 422, N-(4-(1-(2-cyanoacetyl)-2,5,6,7-tetrahydro-1H-azepin-4-yl)-1H-pyrrolo[2,3-b]pyridin-6-yl)cyclopropanecarboxamide] | < 20 nM
10 | O=C(Nc1cc(C2=CCN(C(=O)NCC(F)(F)F)CC2)c2cc[nH]c2n1)C1CC1 [Example 443, 4-(6-(cyclopropanecarboxamido)-1H-pyrrolo[2,3-b]pyridin-4-yl)-N-(2,2,2-trifluoroethyl)-3,6-dihydropyridine-1 (2H)-carboxamide] | < 20 nM
11 | N#CCC(=O)N1CC=C(c2cc(NC(=O)C3CC3)nc3[nH]ccc23)C2(CC2)C1 [Example 303, N-(4-(5-(2-cyanoacetyl)-5-azaspiro[2.5]oct-7-en-8-yl)-1H-pyrrolo[2,3-b]pyridin-6-yl)cyclopropanecarboxamide] | < 20 nM
12 | CCS(=O)(=O)N1CC(CC#N)(N2C3CCC2CN(c2cc(NC(=O)C4CC4)nc4[nH]ccc24)C3)C1 [Example 701, N-(4-(8-(3-(cyanomethyl)-1-(ethylsulfonyl)azetidin-3-yl)-3,8-diazabicyclo[3.2.1]octan-3-yl)-1H-pyrrolo[2,3-b]pyridin-6-yl)cyclopropanecarboxamide] | > 200 nM
13 | O=C(Nc1ccc(-c2nc(NC(=O)C3CC3)nc3[nH]ccc23)cc1)NC1CC1 [Example 437, N-(4-(4-(3-cyclopropylureido)phenyl)-7H-pyrrolo[2,3-d]pyrimidin-2-yl)cyclopropanecarboxamide] | > 200 nM
14 | N#CCCS(=O)(=O)NC1CC=C(c2cc(NC(=O)C3CC3)nc3[nH]ccc23)CC1 (centres unmarked) [Example 155, N-(4-(4-((2-cyanoethyl)sulfonamido)cyclohex-1-en-1-yl)-1H-pyrrolo[2,3-b]pyridin-6-yl)cyclopropanecarboxamide] | < 20 nM
15 | O=C(Nc1cc(C2=CC3CCC(C2)N3S(=O)(=O)c2ccc(F)c(F)c2)c2cc[nH]c2n1)C1CC1 (centres unmarked) [Example 178, N-(4-(8-((3,4-difluorophenyl)sulfonyl)-8-azabicyclo[3.2.1]oct-2-en-3-yl)-1H-pyrrolo[2,3-b]pyridin-6-yl)cyclopropanecarboxamide] | 20 to 200 nM
16 | CC(C)(C)OC(=O)N1CC=C(c2cc(NC(=O)C3CC3)nc3[nH]ccc23)C1 [Example 461, tert-butyl 3-(6-(cyclopropanecarboxamido)-1H-pyrrolo[2,3-b]pyridin-4-yl)-2,5-dihydro-1H-pyrrole-1-carboxylate] | > 200 nM

Row | SMILES | IC50
17 | O=C(Nc1nc(-c2ccc(NS(=O)(=O)C3CCS(=O)(=O)C3)cc2)c2cc[nH]c2n1)C1CC1 (centres unmarked) [Example 196, N-(4-(4-((1,1-dioxidotetrahydrothiophene)-3-sulfonamido)phenyl)-7H-pyrrolo[2,3-d]pyrimidin-2-yl)cyclopropanecarboxamide] | 20 to 200 nM
18 | CCN(CC)S(=O)(=O)Nc1ccc(-c2cc(NC(=O)C3CC3)nc3[nH]ccc23)cc1 [Example 216, N-(4-(4-((N,N-diethylsulfamoyl)amino)phenyl)-1H-pyrrolo[2,3-b]pyridin-6-yl)cyclopropanecarboxamide] | 20 to 200 nM
19 | CC1CN(C(=O)CC(=O)N2CCOCC2)CC=C1c1cc(NC(=O)C2CC2)nc2[nH]ccc12 (centres unmarked) [Example 362, N-(4-(3-methyl-1-(3-morpholino-3-oxopropanoyl)-1,2,3,6-tetrahydropyridin-4-yl)-1H-pyrrolo[2,3-b]pyridin-6-yl)cyclopropanecarboxamide] | 20 to 200 nM
20 | O=C(Nc1cc(C2=CCN(C(=O)c3ccnc(F)c3)CCC2)c2cc[nH]c2n1)C1CC1 [Example 423, N-(4-(1-(2-fluoroisonicotinoyl)-2,5,6,7-tetrahydro-1H-azepin-4-yl)-1H-pyrrolo[2,3-b]pyridin-6-yl)cyclopropanecarboxamide] | < 20 nM
21 | CC(C)(C)CS(=O)(=O)Nc1ccc(-c2cc(NC(=O)C3CC3)nc3[nH]ccc23)cc1F [Example 79, N-(4-(4-((2,2-dimethylpropyl)sulfonamido)-3-fluorophenyl)-1H-pyrrolo[2,3-b]pyridin-6-yl)cyclopropanecarboxamide] | < 20 nM
22 | CC1CN(C(=O)c2ccnc(Cl)c2)CC=C1c1cc(NC(=O)C2CC2)nc2[nH]ccc12 (centres unmarked) [Example 310, N-(4-(1-(2-chloroisonicotinoyl)-3-methyl-1,2,3,6-tetrahydropyridin-4-yl)-1H-pyrrolo[2,3-b]pyridin-6-yl)cyclopropanecarboxamide] | < 20 nM
23 | CCS(=O)(=O)N1CC(CC#N)(N2CC=C(c3cc(NC(=O)C4CC4)nc4[nH]ccc34)C(C)C2)C1 (centres unmarked) [Example 626, N-(4-(1-(3-(cyanomethyl)-1-(ethylsulfonyl)azetidin-3-yl)-3-methyl-1,2,3,6-tetrahydropyridin-4-yl)-1H-pyrrolo[2,3-b]pyridin-6-yl)cyclopropanecarboxamide] | < 20 nM
24 | O=C(Nc1cc(C2=CC3CCCC(C2)N3C(=O)c2ccc(Cl)nc2)c2cc[nH]c2n1)C1CC1 (centres unmarked) [Example 368, N-(4-(9-(6-chloronicotinoyl)-9-azabicyclo[3.3.1]non-2-en-3-yl)-1H-pyrrolo[2,3-b]pyridin-6-yl)cyclopropanecarboxamide] | < 20 nM
25 | N#CCCCS(=O)(=O)Nc1ccc(-c2nc(NC(=O)C3CC3)nc3[nH]cnc23)cc1 [Example 210, N-(6-(4-((3-cyanopropyl)sulfonamido)phenyl)-9H-purin-2-yl)cyclopropanecarboxamide] | > 200 nM
26 | CCOC(=O)N1CCN(C(=O)Cc2ccc(-c3cc(NC(=O)C4CC4)nc4[nH]ccc34)cc2)CC1 [Example 565, ethyl 4-(2-(4-(6-(cyclopropanecarboxamido)-1H-pyrrolo[2,3-b]pyridin-4-yl)phenyl)acetyl)piperazine-1-carboxylate] | 20 to 200 nM
27 | C[C@@H]1CC(c2cc(NC(=O)C3CC3)nc3[nH]ccc23)=CCN1C(=O)CC#N [Example 389, (R)—N-(4-(1-(2-cyanoacetyl)-2-methyl-1,2,3,6-tetrahydropyridin-4-yl)-1H-pyrrolo[2,3-b]pyridin-6-yl)cyclopropanecarboxamide] | < 20 nM
28 | CCCS(=O)(=O)NC1CC=C(c2cc(NC(=O)C3CC3)nc3[nH]ccc23)CC1 (centres unmarked) [Example 152, N-(4-(4-(propylsulfonamido)cyclohex-1-en-1-yl)-1H-pyrrolo[2,3-b]pyridin-6-yl)cyclopropanecarboxamide] | 20 to 200 nM
29 | C[C@@H]1CN(C2(CC#N)CN(S(=O)(=O)C(F)(F)F)C2)CC=C1c1cc(NC(=O)C2CC2)nc2[nH]ccc12 [Example 628, (S)—N-(4-(1-(3-(cyanomethyl)-1-((trifluoromethyl)sulfonyl)azetidin-3-yl)-3-methyl-1,2,3,6-tetrahydropyridin-4-yl)-1H-pyrrolo[2,3-b]pyridin-6-yl)cyclopropanecarboxamide] | < 20 nM
30 | O=C(Nc1cc(-c2ccc(CNC3CCS(=O)(=O)CC3)cc2)c2cc[nH]c2n1)C1CC1 [Example 596, N-(4-(4-(((1,1-dioxidotetrahydro-2H-thiopyran-4-yl)amino)methyl)phenyl)-1H-pyrrolo[2,3-b]pyridin-6-yl)cyclopropanecarboxamide] | 20 to 200 nM
31 | CCc1cc(NS(=O)(=O)C2CCC2)ccc1-c1cc(NC(=O)C2CC2)nc2[nH]ccc12 [Example 114, N-(4-(4-(cyclobutanesulfonamido)-2-ethylphenyl)-1H-pyrrolo[2,3-b]pyridin-6-yl)cyclopropanecarboxamide] | < 20 nM
32 | CS(=O)(=O)CCS(=O)(=O)Nc1ccc(-c2cc(NC(=O)C3CC3)nc3[nH]ccc23)cc1 [Example 56, N-(4-(4-((2-(methylsulfonyl)ethyl)sulfonamido)phenyl)-1H-pyrrolo[2,3-b]pyridin-6-yl)cyclopropanecarboxamide] | < 20 nM
